Assays:
[1] = tested on: P aeruginosa 10145; experiment: Synergy of Zosteric Acid (ZA) with Kathon, MIC in M9GY; assay type: cell-based; conditions: ZA alone
[2] = tested on: P aeruginosa 10145; experiment: Synergy of Zosteric Acid (ZA) with HOCL, MIC in M9GY; assay type: cell-based
[3] = ZA alone, M9GY, highest value tested, used for SI calculations

- QZA, MIC at 24 hours (ppm) ([1]; 24 hours): 10,000 ppm
- QZA, MIC at 48 hours (ppm) ([1]; 48 hours): 10,000 ppm
- MIC at 24 hours, QZA [2, 3]: 10,000 ppm
- MIC at 48 hours, QZA [2, 3]: 10,000 ppm
SMILES: O=C(O)/C=C/c1ccc(OS(=O)(=O)O)cc1 [ZA, Zosteric Acid]
- MIC for ZA ([2]; table note, 10,000 ppm was the highest value tested): MIC for ZA is greater than 10,000 ppm, but since it was the highest value tested it was used for SI calculations.

From US20090016990A1, “Antimicrobial Compositions” (priority 2007, published 2009)
